*1 amine or outer side, *2 acyl side, *3 side chain or, on linkers, in order; H or OH if unused. Where a SMILES comes first, the peptide text is derived from it. [ ]: non-standard residue; d: D form. Trp(4-Cl)(βS-Me) = C[C@@H](c1c[nH]c2cccc(Cl)c12)[C@H](N)C(=O)O; Ala(piperidin-4-yl) = O=C([C@H](CC1CCN([*:3])CC1)N[*:1])[*:2]; Bip(4'-COOH) = N[C@@H](Cc1ccc(-c2ccc(C(=O)O)cc2)cc1)C(=O)O; Phe(4-COOH) = N[C@@H](Cc1ccc(C(=O)O)cc1)C(=O)O; Pro(4R-NH2) = N[C@H]1CN[C@H](C(=O)O)C1; 1Nal = N[C@@H](Cc1cccc2ccccc12)C(=O)O; hTyr = N[C@@H](CCc1ccc(O)cc1)C(=O)O; 3Pal = N[C@@H](Cc1cccnc1)C(=O)O; 4Pal = N[C@@H](Cc1ccncc1)C(=O)O; Orn = NCCC[C@H](N)C(=O)O; dNMeA = CN[C@H](C)C(=O)O; Aib = CC(C)(N)C(=O)O
Each compound was assayed against T1, Recombinant human IL-1β (Homo sapiens, UniProt P01584) (assay: IL-6 assay in MRC5 cells: inhibition of IL-1β induced IL-6 secretion (AlphaLISA)). Settings: inhibition of IL-1β induced IL-6 secretion in MRC5 cells; IL-1β pre-incubated 1 hour with compound; read-out: MRC5 IC50.
T1 construct: purchased BioLegend 579404
T1 sequence (P01584 117-269): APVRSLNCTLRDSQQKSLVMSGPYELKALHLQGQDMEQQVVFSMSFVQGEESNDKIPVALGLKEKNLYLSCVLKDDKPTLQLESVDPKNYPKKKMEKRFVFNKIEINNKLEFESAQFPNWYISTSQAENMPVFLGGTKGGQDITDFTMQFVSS
Type: cell-based
How it was run: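 IL-1β at 2×EC80 in seeding medium (EMEM, 0.025% BSA) preincubated 1 h at ambient temperature with compound, then 3000 MRC5 cells/well added and incubated overnight at 37 °C, 5% CO2. IL-6 in conditioned medium quantified by AlphaLISA; IC50 from 4-parameter logistic fit.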

| IC50 | Compound |
| --- | --- |
| 0.0522 nM | CC(C)C[C@@H]1NC(=O)[C@H](Cc2cccc3ccccc23)NC(=O)[C@H](Cc2ccc(-c3ccc(C(=O)O)cc3)cc2)NC(=O)CNC(=O)[C@@H](C)N(C)C(=O)[C@H](CC(=O)O)NC(=O)[C@H]([C@@H](C)c2c[nH]c3cccc(Cl)c23)NC(=O)[C@@H]2C[C@@H](N)CN2C(=O)CNC(=O)[C@H](Cc2ccc(C(=O)O)cc2)NC(=O)[C@H](Cc2c[nH]c3ccccc23)NC(=O)[C@H](Cc2ccc(-c3ccc(C(=O)O)cc3)cc2)NC(=O)[C@H](CCc2ccc(O)cc2)NC(=O)C(C)(C)NC1=O [Example 36] (cyclo([Bip(4'-COOH)]W[Phe(4-COOH)]G[Pro(4R-NH2)][Trp(4-Cl)(βS-Me)]D[dNMeA]G[Bip(4'-COOH)][1Nal]L[Aib][hTyr])) |
| 0.103 nM | C[C@@H]1C(=O)NCC(=O)N[C@@H](Cc2ccc(-c3ccc(C(=O)O)cc3)cc2)C(=O)N[C@@H](Cc2cccc3ccccc23)C(=O)N[C@@H](CCCN)C(=O)NC(C)(C)C(=O)NCC(=O)N[C@@H](Cc2ccc(-c3ccc(C(=O)O)cc3)cc2)C(=O)N[C@@H](Cc2c[nH]c3ccccc23)C(=O)N[C@@H](Cc2ccc(C(=O)O)cc2)C(=O)NCC(=O)N2C[C@H](N)C[C@H]2C(=O)N[C@@H]([C@@H](C)c2c[nH]c3cccc(Cl)c23)C(=O)N[C@@H](CC(=O)O)C(=O)N1C [Example 37] (cyclo([Bip(4'-COOH)]W[Phe(4-COOH)]G[Pro(4R-NH2)][Trp(4-Cl)(βS-Me)]D[dNMeA]G[Bip(4'-COOH)][1Nal][Orn][Aib]G)) |
| 0.217 nM | C[C@@H]1C(=O)NCC(=O)N[C@@H](Cc2ccc(-c3ccc(C(=O)O)cc3)cc2)C(=O)N[C@@H](Cc2cccnc2)C(=O)N[C@@H](CO)C(=O)N[C@H](C)C(=O)N[C@@H](CCc2ccc(O)cc2)C(=O)N[C@@H](Cc2ccc(-c3ccc(C(=O)O)cc3)cc2)C(=O)N[C@@H](Cc2c[nH]c3ccccc23)C(=O)N[C@@H](Cc2ccc(C(=O)O)cc2)C(=O)NCC(=O)N2C[C@H](N)C[C@H]2C(=O)N[C@@H]([C@@H](C)c2c[nH]c3cccc(Cl)c23)C(=O)N[C@@H](CC(=O)O)C(=O)N1C [Example 38] (cyclo([Bip(4'-COOH)]W[Phe(4-COOH)]G[Pro(4R-NH2)][Trp(4-Cl)(βS-Me)]D[dNMeA]G[Bip(4'-COOH)][3Pal]S[dA][hTyr])) |
| 0.232 nM | C[C@@H]1C(=O)NCC(=O)N[C@@H](Cc2ccc(-c3ccc(C(=O)O)cc3)cc2)C(=O)N[C@@H](Cc2ccncc2)C(=O)N[C@@H](CO)C(=O)N[C@H](C)C(=O)N[C@@H](CCc2ccc(O)cc2)C(=O)N[C@@H](Cc2ccc(-c3ccc(C(=O)O)cc3)cc2)C(=O)N[C@@H](Cc2c[nH]c3ccccc23)C(=O)N[C@@H](Cc2ccc(C(=O)O)cc2)C(=O)NCC(=O)N2C[C@H](N)C[C@H]2C(=O)N[C@@H]([C@@H](C)c2c[nH]c3cccc(Cl)c23)C(=O)N[C@@H](CC(=O)O)C(=O)N1C [Example 39] (cyclo([Bip(4'-COOH)]W[Phe(4-COOH)]G[Pro(4R-NH2)][Trp(4-Cl)(βS-Me)]D[dNMeA]G[Bip(4'-COOH)][4Pal]S[dA][hTyr])) |
| 0.508 nM | C[C@@H]1C(=O)NCC(=O)N[C@@H](Cc2ccc(-c3ccc(C(=O)O)cc3)cc2)C(=O)N[C@@H](CC2CCNCC2)C(=O)N[C@@H](CO)C(=O)N[C@H](C)C(=O)N[C@@H](CCc2ccc(O)cc2)C(=O)N[C@@H](Cc2ccc(-c3ccc(C(=O)O)cc3)cc2)C(=O)N[C@@H](Cc2c[nH]c3ccccc23)C(=O)N[C@@H](Cc2ccc(C(=O)O)cc2)C(=O)NCC(=O)N2C[C@H](N)C[C@H]2C(=O)N[C@@H]([C@@H](C)c2c[nH]c3cccc(Cl)c23)C(=O)N[C@@H](CC(=O)O)C(=O)N1C [Example 40] (cyclo([Bip(4'-COOH)]W[Phe(4-COOH)]G[Pro(4R-NH2)][Trp(4-Cl)(βS-Me)]D[dNMeA]G[Bip(4'-COOH)][Ala(piperidin-4-yl)]S[dA][hTyr])) |

From patent US20230406885A1, “CYCLIC PEPTIDES FOR TRAPPING INTERLEUKIN-1 BETA” (MERCK SHARP & DOHME LLC, priority 2022, published 2023)
